In patent US10233189B2 (priority 2015, dated 2019):

Experiment: Evaluation of stability in hepatic microsome
Format: in vitro ADME
Details: mouse hepatic microsome 0.25 mg/mL, 1 μM compound, 37° C., 30 minutes, NADPH-generating system

percentage of the remaining tested compounds (remaining %): 0%
SMILES: Cc1ccc(-c2nn(C(C)(C)C)c3ncnc(N)c23)cc1 [Compound 4 of Comparative Examples, 1-(tert-butyl)-3-(p-tolyl)pyrazolo[3,4-d]pyrimidin-4-amine]
